The target in one experiment is T1, ORP1 (Homo sapiens, UniProt Q9BXW6).
T1 construct: ORP1(534-950); host or cells: E. coli BL21(DE3)
T1 sequence (Q9BXW6 534-950): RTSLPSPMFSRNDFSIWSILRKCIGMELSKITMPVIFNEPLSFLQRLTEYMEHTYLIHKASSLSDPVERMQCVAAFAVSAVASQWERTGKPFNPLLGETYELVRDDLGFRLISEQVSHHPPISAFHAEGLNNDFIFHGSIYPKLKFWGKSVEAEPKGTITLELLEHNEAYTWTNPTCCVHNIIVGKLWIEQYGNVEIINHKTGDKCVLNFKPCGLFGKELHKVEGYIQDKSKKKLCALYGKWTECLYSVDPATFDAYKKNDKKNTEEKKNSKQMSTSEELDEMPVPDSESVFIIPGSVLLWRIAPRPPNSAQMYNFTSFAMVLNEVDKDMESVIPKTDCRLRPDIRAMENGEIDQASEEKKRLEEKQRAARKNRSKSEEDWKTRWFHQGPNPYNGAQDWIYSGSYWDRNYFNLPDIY
The experiment can be described thus: Fluorescence polarisation (FP) competition with NBD-cholesterol, ORP1. In kind it is binding. As to conditions: single dose, Dose = 10 µM. The text has this:
(§1) Protein expression constructs
(§2) Human ASTER domains of Aster-A(359-547), -B(364-552) and -C(318-504) were subcloned into a pGEX-6p-2rbs vector, thus introducing the cloning artifact ‘GPLGS’.3 The pGEX-6P-1-GST-OSBP(377- […]
(§3) a gift from James H. Hurley (University of California).4 The pHIS_2His6_Thrombin_STARD4(2-205;C75S) plasmid was a gift from Young Jun Im (Chonnam National University).5 STARD5A was a gift from Nicola Burgess-Brown (Addgene plasmid #42392; http://n2t.net/addgene:42392; […]
(§4) Protein expression and purification […]
(§5) vectors including an N-terminal PreScission-cleavable glutathione S-transferase (GST)-tag were expressed in Escherichia coli (E. coli) OverExpress C41 in Terrific Broth (TB) medium for 16 h at 18 °C after the induction with 0.1 mM isopropyl β-D-1-thiogalactopyranoside (IPTG). Cells were harvested at 3500 × g for 15 minutes and lysed by sonication in buffer containing 50 mM HEPES pH 7.5, 300 mM NaCl, 10 %v/v glycerol, 5 mM dithiothreitol (DTT), 0.1 %v/v Triton X-100 and protease inhibitor mix HP plus (Serva). The lysate was purified by affinity chromatography on a GSTrap FF column (Cytiva) using an ÄKTA Start (Cytiva) in buffer containing 50 mM HEPES pH 7.5, 300 mM NaCl, 10 %v/v glycerol, 5 mM DTT and 0.01 %v/v Triton X-100. The GST-tag was cleaved overnight on the column at 4 °C. The Aster sterol binding domains were further purified by size-exclusion chromatography (SEC) on a HiLoad 16/600 Superdex 75 pg (Cytiva) in buffer containing 20 mM HEPES pH 7.5, 300 mM NaCl, 10 %v/v […]
(§6) STARD5(6-213) harboring an N-terminal His6-Tag were expressed in E. coli BL21(DE3) in Luria-Bertani Broth (LB) medium for approximately 16 h at 18 °C after induction with 0.15 mM IPTG. Cells were harvested at 3500 × g for 15 minutes and lysed by sonication in buffer containing 50 mM HEPES pH 7.5, 150 mM NaCl, 5 %v/v glycerol, 5 mM DTT, 0.1 %v/v Triton X -100 and ethylenediaminetetraacetic acid (EDTA)-free protease inhibitor cocktail (Sigma-Aldrich). The cleared lysate was purified by affinity chromatography on a Ni-NTA Superflow Cartridge (Qiagen) using an ÄKTA Start (Cytiva) in buffer containing 50 mM HEPES pH 7.5, 150 mM NaCl, 5 %v/v glycerol, 5 mM DTT. START domains were eluted by using elution buffer containing 50 mM HEPES pH 7.5, 150 mM NaCl, 5 %v/v glycerol, 5 mM DTT and 500 mM imidazole. Proteins were further purified by SEC on a HiLoad 16/600 Superdex 75 pg (Cytiva) in buffer containing 20 mM HEPES pH 7.5, 150 mM NaCl, 5 %v/v glycerol and 2 mM DTT.
(§7) The ORP domain of human OSBP(377-807) in the pGEX-6p-1 vector with an N-terminal PreScission-cleavable GST-tag was expressed in E. coli OverExpress C41 in LB medium for 16 h at 18 °C after induction with 0.1 mM IPTG. Cells were harvested at 3500 × g for 15 minutes and lysed by sonication in buffer containing 20 mM HEPES pH 7.5, 300 mM NaCl, 10 %v/v glycerol, 5 mM DTT, 0.1 %v/v Triton X-100 and EDTA-free protease inhibitor cocktail (Sigma-Aldrich). The cleared lysate was purified by affinity chromatography on a GSTrap HF column (Cytiva) using an ÄKTA Start (Cytiva) in buffer containing 20 mM HEPES pH 7.5, 300 mM NaCl, 10 %v/v glycerol, 5 mM DTT. OSBP(377 -807) was eluted by using elution buffer containing 20 mM HEPES pH 7.5, 300 mM NaCl, 10 %v/v glycerol, 5 mM DTT and 10 mM reduced glutathione. Proteins were further purified by SEC on a HiLoad 16/600 Superdex 75 pg (Cytiva) using an ÄKTA Explorer (Cytiva) in buffer containing 20 mM HEPES pH 7.5, 150 mM NaCl, 10 %v/v glycerol and 2 mM DTT.
(§8) The ORP domains of human ORP1(534-950) in pET24b(+) and ORP2(49-480) in the pET24b(+) vector including an N-terminal His6-Tag were expressed in E. coli BL21(DE3) in TB medium for approximately 16 h at 18 °C after induction with 0.1 mM IPTG. Cells were collected at 3500 × g for 15 minutes and lysed by sonification in buffer containing 10 mM Tris-HCl pH 8, 300 mM NaCl, 5 % glycerol, 2 mM DTT, 0.1 % Triton X-100 and EDTA-free protease inhibitor cocktail (Sigma-Aldrich). The cleared […]
On the technique in general: In fluorescence polarisation assays a small probe gives low polarisation when free and higher when bound to something large.

A further experiment concerns the target T2, STARD3 (Homo sapiens, UniProt Q14849).
T2 construct: STARD3(216-444); made in house; host or cells: E. coli BL21(DE3)
T2 sequence (Q14849 216-444): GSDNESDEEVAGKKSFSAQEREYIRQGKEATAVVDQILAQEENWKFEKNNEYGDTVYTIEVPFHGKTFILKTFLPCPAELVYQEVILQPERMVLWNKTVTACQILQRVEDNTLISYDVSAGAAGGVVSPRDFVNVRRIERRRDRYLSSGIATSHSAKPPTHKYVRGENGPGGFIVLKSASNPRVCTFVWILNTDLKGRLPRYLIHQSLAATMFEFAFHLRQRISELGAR
The experiment can be described thus: Differential scanning fluorimetry (DSF), STARD3. In kind it is binding. Conditions: single dose, Dose = 10 µM.
Text: as §1, §2, §3, §4, §5, §6, §7, §8

As to `C[C@]12CC[C@@H](O)C[C@H]1CCc1sc(-c3cccnc3)nc12` [Compound 8c], the “ORP1 (FP) inhibition” value at ORP1 is reported as 5.8%. Also, at STARD3, the “STARD3 (DSF) ΔTm” value worked out at 0.345 °C.
As usually defined, the inhibition is the drop in the measured response relative to a control, in per cent. For orientation: ΔTm means the change in melting temperature against a reference sample. Turning to `COc1ccc(-c2nc3c(s2)CC[C@@H]2C[C@H](O)CC[C@]32C)cc1` [Compound 8d], the inhibition at 10 µM at ORP1 worked out at 66.7%. Also, the thermal shift (ΔTm) at 10 µM on STARD3 stood at 0.5 °C.
Turning to `C[C@]12CC[C@@H](O)C[C@H]1CCc1sc(-c3ccc(F)cc3)nc12` [Compound 8e], on ORP1, the “ORP1 (FP) inhibition” value turned out to be 31.7%. The “STARD3 (DSF) ΔTm” value at STARD3 was 0.0572 °C.
For the molecule `C[C@]12CC[C@@H](O)C[C@H]1CCc1[nH]c(-c3ccccc3)nc12` [Compound 9], at ORP1, the inhibition at 10 µM is -0.8%. The ΔTm at 10 µM at STARD3 is -0.0297 °C.
As to `C[C@]12CC[C@@H](O)C[C@H]1CCc1c2[nH]c2ccccc12` [Compound 10a], at ORP1, the “ORP1 (FP) inhibition” value was 28.3%. The “STARD3 (DSF) ΔTm” value on STARD3 is -0.188 °C.
`C[C@]12CC[C@@H](O)C[C@H]1CCc1c2[nH]c2ccc(Br)cc12` [Compound 10b]: on ORP1, the “ORP1 (FP) inhibition” value was 21.7%. In addition, the “STARD3 (DSF) ΔTm” value on STARD3 is -0.0462 °C.
The matching figures for `C[C@]12CC[C@@H](O)C[C@H]1CCc1c2[nH]c2ccc(Cl)cc12` [Compound 10c]: 24.2% and -0.121 °C.
The matching figures for `C[C@]12CC[C@@H](O)C[C@H]1CCc1c2[nH]c2ccc(F)cc12` [Compound 10d]: 28.3% and -0.115 °C.
For `Cc1ccc2[nH]c3c(c2c1)CC[C@@H]1C[C@H](O)CC[C@]31C` [Compound 10e], on ORP1, the inhibition at 10 µM turned out to be 27.5%. For the same molecule, the ΔTm at 10 µM on STARD3 is 0.0774 °C.
As for `COc1ccc2[nH]c3c(c2c1)CC[C@@H]1C[C@H](O)CC[C@]31C` [Compound 10f], the inhibition at 10 µM on ORP1 came out at 11.7%. For the same molecule, the ΔTm at 10 µM on STARD3 is -0.0471 °C.
For `CC12CCC(O)CC1CCc1c2[nH]c2ccc(C(F)(F)F)cc12` (centres unmarked) [Compound 10g], the inhibition at 10 µM on ORP1 turned out to be 39.2%. For the same molecule, on STARD3, the ΔTm at 10 µM was found to be 0.227 °C.
Consider `C[C@]12CC[C@@H](O)C[C@H]1CCc1c2[nH]c2ccc(I)cc12` [Compound 10h], for which, on ORP1, the “ORP1 (FP) inhibition” value is listed as 35.8%. The “STARD3 (DSF) ΔTm” value at STARD3 came to 0.1 °C.
Turning to `C[C@]12CC[C@@H](O)C[C@H]1CCc1c2[nH]c2c(F)cc(Cl)cc12` [Compound 10i], the inhibition at 10 µM on ORP1 was 14.2%. Besides, the shift in melting temperature (ΔTm) at 10 µM on STARD3 stood at 0.0372 °C.
`Cc1cc(C)c2c3c([nH]c2c1)[C@@]1(C)CC[C@@H](O)C[C@H]1CC3` [Compound 10j]: on ORP1, the inhibition at 10 µM worked out at 11.7%. For the same molecule, at STARD3, the ΔTm at 10 µM is -0.108 °C.
Consider `CCOC(=O)c1ccc2[nH]c3c(c2c1)CC[C@@H]1C[C@H](O)CC[C@]31C` [Compound 10k], for which, on ORP1, the “ORP1 (FP) inhibition” value is 10.0%. Further, the “STARD3 (DSF) ΔTm” value at STARD3 was determined as 0.08 °C.
As to `C[C@]12CC[C@@H](O)C[C@H]1CCC(=O)c1ccccc1NC2=O` [Compound 11a], at ORP1, the “ORP1 (FP) inhibition” value is given as -2.5%. Moreover, the “STARD3 (DSF) ΔTm” value on STARD3 was -0.0327 °C.
As for `C[C@]12CC[C@@H](O)C[C@H]1CCC(=O)c1cc(Br)ccc1NC2=O` [Compound 11b], the inhibition at 10 µM on ORP1 was -1.7%. Further, the ΔTm at 10 µM on STARD3 was -0.0537 °C.
The like results for `Cc1ccc2c(c1)C(=O)CC[C@@H]1C[C@H](O)CC[C@]1(C)C(=O)N2` [Compound 11c] were, in that order, -8.3% and -0.0522 °C.
The like results for `COc1ccc2c(c1)C(=O)CC[C@@H]1C[C@H](O)CC[C@]1(C)C(=O)N2` [Compound 11d] were, in that order, -3.3% and -0.119 °C.
The like results for `C[C@]12CC[C@@H](O)C[C@H]1CCC(=O)c1cc(C(F)(F)F)ccc1NC2=O` [Compound 11e] were, in that order, -3.3% and -0.0434 °C.
For `C[C@]12CC[C@@H](O)C[C@H]1CCC(=O)c1cc(Cl)cc(F)c1NC2=O` [Compound 11f], on ORP1, the “ORP1 (FP) inhibition” value is recorded as -6.7%. In addition, the “STARD3 (DSF) ΔTm” value on STARD3 was -0.0767 °C.
Consider `Cc1cc(C)c2c(c1)NC(=O)[C@@]1(C)CC[C@@H](O)C[C@H]1CCC2=O` [Compound 11g], for which the inhibition at 10 µM at ORP1 is -6.7%. Also, the ΔTm at 10 µM at STARD3 is -0.0181 °C.

For the origin of these results see article PMC11758220, “Identification of a Privileged Scaffold for Inhibition of Sterol Transport Proteins through the Synthesis and Ring Distortion of Diverse, Pseudo-Natural Products” (ACS Central Science, 2025).
